Counter-ions that a name gives are not always drawn.
Assays:
wild-type KIT = wild-type KIT (Homo sapiens, UniProt P10721); settings: cited from earlier work
[1] = test system: KIT activation loop mutations that involve residues other than aspartic acid 816; settings: cited from earlier work
[2] = test system: KIT D816 mutations (D816V, D816Y, D816F, D816H); settings: or equivalent D814 residue in murine KIT; cited from earlier work
[3] = test system: KIT activating mutations involving the extracellular, juxtamembrane and TK1 domain; settings: cited from earlier work
CHO cells = experiment: Tyrosine phosphorylation of wild-type and mutant PDGFRA transiently expressed in CHO cells (immunoblot); format: cell-based, Chinese hamster; settings: for change of tyrosine phosphorylation by ligand stimulation: CHO cells, 100 ng/ml recombinant human PDGF-AA for 10 minutes; for baseline tyrosine phosphorylation: transient expression in CHO cells, serum starved overnight, vehicle
Method: FIG. 8: DGFRA mutations in GISTs result in constitutive activation of PDGFRA kinase. […] CHO cells were transiently transfected with expression vectors encoding cDNAs for wild-type or mutant PDGFRA. Transfected cells were serum starved overnight and treated with vehicle or ligand (recombinant human PDGF-AA) for 10 minutes. Whole cell lysates were immunostained sequentially for phospho-tyrosine and PDGFRA. […] In contrast, the mutant PDGFRA proteins display ligand-independent phosphorylation.
PDGFRA mutations were cloned by site-directed mutagenesis of the wild type PDGFRA cDNA. CHO cells were transiently transfected with expression vectors encoding for mutant or wild-type PDGFRA cDNA. Transfected cells were serum starved overnight and stimulated with vehicle or 100 ng/ml recombinant human PDGF-AA for 10 minutes before harvesting cells and preparing whole cell lysates for immunoblotting. The membranes were sequentially immunoblotted with antiserum against phosphorylated tyrosines (PY20 Transduction Laboratories) or total PDGFRA (Santa Cruz sc-338).

wild-type KIT, sequence (P10721 26-976): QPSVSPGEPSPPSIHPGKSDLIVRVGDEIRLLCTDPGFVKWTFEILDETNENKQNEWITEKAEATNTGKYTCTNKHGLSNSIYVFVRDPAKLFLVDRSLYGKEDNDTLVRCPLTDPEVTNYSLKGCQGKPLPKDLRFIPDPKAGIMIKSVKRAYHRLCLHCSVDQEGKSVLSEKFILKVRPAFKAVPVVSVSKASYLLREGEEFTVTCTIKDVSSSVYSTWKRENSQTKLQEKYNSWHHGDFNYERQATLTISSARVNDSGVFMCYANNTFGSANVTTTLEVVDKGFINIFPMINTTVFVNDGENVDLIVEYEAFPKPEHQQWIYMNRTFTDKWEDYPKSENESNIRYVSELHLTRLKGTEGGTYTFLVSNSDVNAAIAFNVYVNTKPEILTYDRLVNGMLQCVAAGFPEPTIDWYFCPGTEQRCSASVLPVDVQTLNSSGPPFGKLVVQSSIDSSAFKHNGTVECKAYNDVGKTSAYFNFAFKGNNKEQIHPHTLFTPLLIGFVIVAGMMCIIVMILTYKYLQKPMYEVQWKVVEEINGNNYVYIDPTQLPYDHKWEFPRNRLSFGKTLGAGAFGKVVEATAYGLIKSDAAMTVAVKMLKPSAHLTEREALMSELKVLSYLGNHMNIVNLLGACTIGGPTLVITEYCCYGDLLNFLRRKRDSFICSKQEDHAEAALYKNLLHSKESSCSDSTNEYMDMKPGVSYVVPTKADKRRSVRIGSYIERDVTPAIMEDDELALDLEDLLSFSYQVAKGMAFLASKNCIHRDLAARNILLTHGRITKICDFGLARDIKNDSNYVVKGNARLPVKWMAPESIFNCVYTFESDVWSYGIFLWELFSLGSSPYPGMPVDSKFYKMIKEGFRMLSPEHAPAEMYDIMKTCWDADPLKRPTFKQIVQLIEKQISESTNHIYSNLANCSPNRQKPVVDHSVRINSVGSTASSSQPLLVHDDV

Row | Compound | activity against the kinase activity of wild-type KIT (wild-type KIT) | activity against other KIT activation loop mutations [1] | activity against KIT D816 mutations [2] | activity against KIT activating mutations involving the extracellular, juxtamembrane and TK1 domain [3] | change of tyrosine phosphorylation by ligand stimulation (CHO cells) | change of tyrosine phosphorylation by ligand stimulation (CHO cells; listed as Wild type PDGFRA) | baseline tyrosine phosphorylation (CHO cells) | baseline tyrosine phosphorylation (CHO cells; listed as Wild type PDGFRA)
1 | Cc1ccc(NC(=O)c2ccc(CN3CCN(C)CC3)cc2)cc1Nc1nccc(-c2cccnc2)n1 [imatinib mesylate] | highly active | some activity | no clinically useful activity | highly active | – | – | – | –
2 | non-mutant PDGFRA: human PDGFRA protein, SEQ ID NO: 2 | – | – | – | – | substantially increased | upregulated | weak | low-level phosphorylation

— US8202969B2, “Platelet derived growth factor receptor alpha (PDGFRA) polypeptides comprising activating mutation(s)” (Oregon Health & Science University, priority 2002, dated 2012)
